Source: patent US5945426A, “Derivatives of pyrimidine for treating acute cerebrovascular disorders” (Nippon Shinyaku Co., Ltd., priority 1994, dated 1999)
Structures can show the parent of a compound that is named as a salt.

Experiments:
[1] = background art; cited from earlier work
[2] = tested on: cerebral infarction (middle cerebral artery occlusion); assay: Protection of Cerebral Infarction in Rats With Middle Cerebral Artery Occlusion; type: in vivo, Male SD rats; conditions: 0.125 mg/kg, intravenously after middle cerebral artery occlusion
Text: Protection of Cerebral Infarction in Rats With Middle Cerebral Artery Occlusion
The cerebral infarction protective effect of the compound of the invention was confirmed in a rat middle cerebral artery occlusion model. This is an animal model of brain regional ischemia which is similar to human cerebral infarction and it is known that the model is useful as a therapeutic model as well (Cerebral Apoplexy Experiment Handbook, 91-97, 1990, published by ICP). Any drug showing cerebral infarction protective activity in this test system can be expected to be clinically effective in humans.
Male SD rats aged 7-8 weeks were anesthetized with ketamin hydrochloride 120-150 mg/kg, i.p. and the head was placed in lateral recumbent position on an operation table. […] Then, the frontal sections were photographed and using an image processor, the areas of infarction were measured. The percentage of the infarct area in the frontal section 6 mm caudal to frontal rostrum, that is at the striatal level, relative to the total area of the tissue section and the total infarct area of the 5 frontal sections prepared at 2 mm intervals from the frontal rostrum was calculated and the percentage of the total infarct area relative to the total area of all the sections was calculated. […]

Acute Toxicity Study = type: in vivo
Protocol: Male SD rats (Slc:SD, Japan SLC) were used. The rats were purchased at 7 weeks of age and the animals which went through a week-long quarantine and acclimation were used in groups of 6. The dose volume was 5 ml/kg for intraperitoneal administration and 10 ml/kg for intravenous administration. […] The drug solutions were prepared using physiological saline and filtered through a 0.22 μm bacterial filter.

NMDA receptor = assay: NMDA-Induced Convulsion Inhibitory Activity; type: in vivo, Mice; conditions: 20 mg/kg, i.p. 30 minutes before NMDA 200 mg/kg i.p.
Protocol: NMDA-Induced Convulsion Inhibitory Activity
Mice were intraperitoneally dosed with 200 mg/kg of N-methyl-D-aspartate (NMDA) and observed for the consequent convulsion and death over a period of 30 minutes after administration. As test drugs, the compound of Example 1, compound of Example 2, compound of Reference Example 10, and compound of Reference Example 12 were used and each was administered intraperitoneally 30 minutes before administration of NMDA.

[3] = tested on: pyramidal cells in the hippocampal CA-1 subfield; assay: Delayed Neuronal Death (DND) Inhibitory Activity in Gerbils (transient ischemia, bilateral common carotid artery occlusion); type: in vivo; conditions: for DND inhibition (score of neuronal death in the hippocampal CA-1 subfield): given at reperfusion after 5-minute ischemia, score 0 (0-10% death) to 4 (75-100% death), control 4.00, n=5, **: p < 0.01 (Wilcoxon's U test)
Text: Delayed Neuronal Death (DND) Inhibitory Activity in Gerbils
The delayed neuronal death protective effect of the compound of the invention was confirmed by an experiment using gerbils. This test is the most widely used for all relevant in vivo evaluation protocols and it is reported that any drug showing DND inhibitory activity in this test system can be expected to be clinically effective in humans [GENDAI-IRYO, 24, 129-133 (1992), Neurology 1987, 37, 1281-1287).
Male gerbils weighing 60-80 g were anesthetized with pentobarbital sodium 35 mg/kg i.p. and placed in supine position. After the skin in the cervical region was incised, the bilateral common carotid arteries were exposed and sutures were placed around each artery. Both ends of each suture was introduced into a polyethylene tube and in suturing the incised wound, the tube was secured to the cervical skin with the suture emerged from the other end of the tube. On the following day, with the animal under no anesthesia, both ends of the suture were gently pulled out and the carotid artery snared by the suture was urged in a bent position into the tube to thereby occlude the carotid artery. After a transient ischemic loading of 5 minutes' duration by occlusion of the bilateral common carotid arteries, the arteries were reperfused. After 7 days, the brain was excised and fixed. A section centered around the hippocampus was prepared and Nissle-stained with 0.05% cresyl violet and the pyramidal cells in the hippocampal CA-1 subfield were microscopically examined for degeneration and death. The degree of neuronal death was scored according to the following criteria.
Criteria for evaluation of neuronal death in the hippocampal CA-1 subfield

delayed neuronal death = conditions: background art; cited from earlier work

SMILES | inhibition of NMDA-induced convulsion (NMDA receptor) | DND inhibition (score of neuronal death in the hippocampal CA-1 subfield) ([3]; 50 mg/kg i.p.) | general condition of animals (Acute Toxicity Study; rat, in vivo, ip) | other results
Cc1cc(OCCN2CCN(c3ccccc3)CC2)nc(-c2ccccc2)n1 [4-methyl-2-phenyl-6-[2-(4-phenylpiperazin-1-yl)ethyloxy]pyrimidine] |  |  |  | α-sympatholytic activity (sedation, hypotension, and vasodilation) [1]: has α-sympatholytic activity (sedation, hypotension, and vasodilation)
Cc1nc(OCCCCCN2CCCCC2)cc(-c2ccc(F)cc2)n1.Cl [Example 1, 4-(4-Fluorophenyl)-2-methyl-6-(5-piperidinopentyloxy)pyrimidine hydrochloride] | did not inhibit | 0.60 |  | inhibition of neuronal death in the rat model of persistent brain ischemia [2]: markedly inhibited neuronal death; general condition of animals (Acute Toxicity Study; intraperitoneal, observed daily for 7 days): no remarkable change; LD50 at 168 h (Acute Toxicity Study; rat, in vivo, ip, intraperitoneal): 65.8 mg/kg; LD50 at 168 h (Acute Toxicity Study; rat, in vivo, intravenous): 22.8 mg/kg; protection activity against the delayed neuronal death, post-ischemia dosing ([3]; single dose after a lapse of 1-2 hours after ischemia): exhibited a protection activity against the delayed neuronal death
Cc1nc(OCCCCN2CCCCC2)cc(-c2ccc(F)cc2)n1.Cl [Example 2, 4-(4-Fluorophenyl)-2-methyl-6-(4-piperidinobutoxy)pyrimidine hydrochloride] | did not inhibit | 0.80 | no remarkable change | 
Cc1nc(OCCCCCCN2CCCCC2)cc(-c2ccc(F)cc2)n1 [Example 3, 4-(4-Fluorophenyl)-2-methyl-6-(6-piperidinohexyloxy)primidine hydrochloride] |  |  | no remarkable change | DND inhibition (score of neuronal death in the hippocampal CA-1 subfield) ([3]; 30 mg/kg, i.p.): 0.60
Cc1cc(OCCCCN2CCCCC2)nc(-c2ccc(F)cc2)n1.Cl [Example 4, 2-(4-Fluorophenyl)-4-methyl-6-(4-piperidinobutoxy)pyrimidine hydrochloride] |  | 0.60 | no remarkable change | 
Cc1cc(-c2ccc(F)cc2)cc(OCCCN2CCCCC2)n1.Cl [Example 16, 4-(4-Fluorophenyl)-2-methyl-6-(3-piperidinopropoxy)pyridine hydrochloride] |  | 0.60 | no remarkable change | 
Cc1cc(-c2ccc(F)cc2)cc(OCCCCCN2CCCCC2)n1.Cl [Example 18, 4-(4-Fluorophenyl)-2-methyl-6-(5-piperidinopentyloxy)pyridine hydrochloride] |  | 0.80 | no remarkable change | 
Cc1nc(OC(C)CCCN2CCCCC2)cc(-c2ccc(F)cc2)n1.Cl (centres unmarked) [Example 21, 4-(4-Fluorophenyl)-2-methyl-6-(1-methyl-4-piperidinobutoxy)pyrimidine hydrochloride] |  | 0.60 | no remarkable change | 
Cc1nc(OCCCN2CCCCC2)cc(-c2ccc(F)cc2)n1.Cl [Reference Example 10, 4-(4-Fluorophenyl)-2-methyl-6-(3-piperidinopropoxy)pyrimidine hydrochloride] | did not inhibit | 0.60 | no remarkable change | 
Cc1cc(OCCCN2CCCCC2)nc(-c2ccc(F)cc2)n1.Cl [Reference Example 12, 2-(4-Fluorophenyl)-4-methyl-6-(3-piperidinopropoxy)pyrimidine hydrochloride] | did not inhibit |  |  | 
CCCn1cnc2c1c(=O)n(CCCCC(C)=O)c(=O)n2C [propentofylline] |  |  |  | effect against delayed neuronal death (delayed neuronal death): effective against delayed neuronal death
